According to PubChem BioAssay AID192 (DTP/NCI, 2004):
“And” between values parts separate entries of the source, which are not always exact repeats. Equal entries are not always repeated. Inconclusive results and toxic doses are left out. How the source made its calls: active means survival T/C of 150% or more; inactive means T/C below 125% in these data. Numbered stars: 1 amine (or outer) side, 2 acyl side, 3 side chain; on linkers, the order of the positions; unused ones are H or OH. Square brackets hold non-standard residues; d marks the D form. Peptide text beside a SMILES is read from it. * marks the point of attachment. X6 = CCC(=O)CC1CC(C)CC(C(=O)[*:2])N1[*:1]; X5 = CCCCCCCCC(C)C(=O)*; Aib = CC(C)(N)C(=O)O; X7 = CC(CN(C)CCO)N*

System: BDF1 mice, B16 melanoma ip, median survival T/C
Experiment: NCI In Vivo Anticancer Drug Screen. Data for tumor model B16 Melanoma (intraperitoneal) in B6D2F1 (BDF1) mice
Settings: endpoint: median survival time, higher = longer survival
In short: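 Survival or tumor size is measured after treatment of tumor-bearing mice and normalised to the vehicle-treated control group.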

[1] = dose: 100.0 mg/kg/injection, schedule: Q01DX009 (ip), vehicle: Klucel (hydroxypropylcellulose) (HPC)
[2] = dose: 200.0 mg/kg/injection, schedule: Q01DX009 (ip), vehicle: Klucel (hydroxypropylcellulose) (HPC)
[3] = dose: 400.0 mg/kg/injection, schedule: Q01DX009 (ip), vehicle: Klucel (hydroxypropylcellulose) (HPC)
[4] = dose: 100.0 mg/kg/injection, schedule: Q04DX003 (ip), vehicle: Klucel (hydroxypropylcellulose) (HPC)
[5] = dose: 200.0 mg/kg/injection, schedule: Q04DX003 (ip), vehicle: Klucel (hydroxypropylcellulose) (HPC)
[6] = dose: 400.0 mg/kg/injection, schedule: Q04DX003 (ip), vehicle: Klucel (hydroxypropylcellulose) (HPC)
[7] = dose: 50.0 mg/kg/injection, schedule: Q01DX009 (ip), vehicle: saline with Tween-80
[8] = dose: 100.0 mg/kg/injection, schedule: Q01DX009 (ip), vehicle: saline with Tween-80
[9] = dose: 25.0 mg/kg/injection, schedule: Q01DX009 (ip), vehicle: Klucel (hydroxypropylcellulose) (HPC)
[10] = dose: 50.0 mg/kg/injection, schedule: Q01DX009 (ip), vehicle: Klucel (hydroxypropylcellulose) (HPC)
[11] = dose: 200.0 mg/kg/injection, schedule: Q01DX009 (ip), vehicle: saline with Tween-80

Measured: T/C

COc1ccc([I+]c2ccccc2)cc1
inactive: dose: 0.75 mg/kg/injection, schedule: Q01DX009 (ip), vehicle: saline with Tween-80 95 % of control | dose: 1.5 mg/kg/injection, schedule: Q01DX009 (ip), vehicle: saline with Tween-80 97 % of control | dose: 3.0 mg/kg/injection, schedule: Q01DX009 (ip), vehicle: saline with Tween-80 102 % of control | dose: 6.0 mg/kg/injection, schedule: Q01DX009 (ip), vehicle: saline with Tween-80 93 % of control

CC1OC(OCc2ccc3c(c2)C(=O)c2ccccc2C3=O)CC(N)C1O (stereo not given)
inactive: dose: 1.56 mg/kg/injection, schedule: Q01DX009 (ip), vehicle: water 102 % of control | dose: 3.13 mg/kg/injection, schedule: Q01DX009 (ip), vehicle: water 93 % of control | dose: 6.25 mg/kg/injection, schedule: Q01DX009 (ip), vehicle: water 115 % of control | dose: 12.5 mg/kg/injection, schedule: Q01DX009 (ip), vehicle: water 115 % of control | dose: 50.0 mg/kg/injection, schedule: Q01DX009 (ip), vehicle: water 94 % of control

COc1ccc(Cl)cc1NC(=O)CC(C)=O
inactive: [1] 100 % of control | [2] 93 % of control | [3] 96 % of control

O=C1NC(=S)S/C1=C\c1ccc(Cl)c(Cl)c1
inactive: [1] 88 % of control | [4] 88 % of control | [2] 97 % of control | [5] 93 % of control | [3] 97 % of control | [6] 88 % of control

Cc1cccc(/C=N/OCCC(C)C)n1
inactive: [7] 107 % of control | [8] 95 % of control

CNc1ccc(/C=C2\C=Cc3ccccc32)cc1
inactive: dose: 12.5 mg/kg/injection, schedule: Q01DX009 (ip), vehicle: gum acacia 104 % of control | [9] 109 % of control | dose: 25.0 mg/kg/injection, schedule: Q01DX009 (ip), vehicle: gum acacia 91 % of control | [10] 112 % of control | dose: 50.0 mg/kg/injection, schedule: Q01DX009 (ip), vehicle: gum acacia 102 % of control

CCCCCCCCC(C)C(=O)N1CCCC1C(=O)N1C(CC(=O)CC)CC(C)CC1C(=O)NC(C)C(=O)NC(C)(C)C(=O)NC(C)(C)C(=O)NC(C(=O)NC(C)C(=O)NC(C)(C)C(=O)NC(C)(C)C(=O)NC(C)CN(C)CCO)C(C)CC (stereo not given) (X5-P[X6]A[Aib][Aib]IA[Aib][Aib]-X7; configuration not given here)
inactive: dose: 0.63 mg/kg/injection, schedule: Q01DX009 (ip), vehicle: Klucel (hydroxypropylcellulose) (HPC) 102 % of control | dose: 1.25 mg/kg/injection, schedule: Q01DX009 (ip), vehicle: Klucel (hydroxypropylcellulose) (HPC) 90 % of control | dose: 2.5 mg/kg/injection, schedule: Q01DX009 (ip), vehicle: Klucel (hydroxypropylcellulose) (HPC) 95 % of control

COc1cc(C(C)c2cc3c(cc2OCCO)OCO3)cc(OC)c1OC (stereo not given)
inactive: dose: 25.0 mg/kg/injection, schedule: Q01DX009 (ip), vehicle: saline with Tween-80 107 % of control | [7] 104 % of control | [8] 110 % of control | [11] 112 % of control

Cn1ccc(=Nc2ccc(NC(=O)c3ccc(N=c4ccn(C)c5ccc([N+](=O)[O-])cc45)cc3)cc2)cc1
inactive: dose: 3.13 mg/kg/injection, schedule: Q01DX009 (ip), vehicle: other 101 % of control | dose: 6.25 mg/kg/injection, schedule: Q01DX009 (ip), vehicle: other 101 % of control | dose: 12.5 mg/kg/injection, schedule: Q01DX009 (ip), vehicle: other 100 % of control | dose: 25.0 mg/kg/injection, schedule: Q01DX009 (ip), vehicle: other 97 % of control

COc1cc2ccc(C(C)N)cc2cc1OC (stereo not given)
inactive: dose: 100.0 mg/kg/injection, schedule: Q01DX009 (ip), vehicle: saline 97 % of control | dose: 200.0 mg/kg/injection, schedule: Q01DX009 (ip), vehicle: saline 95 % of control

COc1ccccc1NC(=O)Oc1ccc(-c2ccccc2)cc1Br
inactive: [1] 100 % of control | [4] 100 % of control | [2] 96 % of control | [5] 90 % of control | [3] 96 % of control | [6] 96 % of control

COc1cccc2c1C(=O)c1c(O)c3c(c(O)c1C2=O)C[C@@](O)(C(C)=O)C[C@@H]3OC1CC(N(Cc2ccccc2)Cc2ccccc2)C(O)C(C)O1 (stereo not given in full)
active: dose: 100.0 mg/kg/injection, schedule: Q01DX001 (ip), vehicle: water 150 % of control
inactive: dose: 12.5 mg/kg/injection, schedule: Q01DX001 (ip), vehicle: water 103 % of control | dose: 25.0 mg/kg/injection, schedule: Q01DX001 (ip), vehicle: water 113 % of control

CN(C)CCC=C1c2ccccc2C=Cc2ccccc21
inactive: dose: 0.39 mg/kg/injection, schedule: Q01DX009 (ip), vehicle: saline 96 % of control | dose: 0.78 mg/kg/injection, schedule: Q01DX009 (ip), vehicle: saline 102 % of control | dose: 1.56 mg/kg/injection, schedule: Q01DX009 (ip), vehicle: saline 98 % of control and 97 % of control | dose: 3.12 mg/kg/injection, schedule: Q01DX009 (ip), vehicle: saline 96 % of control and 100 % of control | dose: 6.25 mg/kg/injection, schedule: Q01DX009 (ip), vehicle: saline 86 % of control and 123 % of control and 93 % of control | dose: 12.5 mg/kg/injection, schedule: Q01DX009 (ip), vehicle: saline 111 % of control | dose: 25.0 mg/kg/injection, schedule: Q01DX009 (ip), vehicle: saline 118 % of control and 90 % of control | dose: 50.0 mg/kg/injection, schedule: Q01DX009 (ip), vehicle: saline 101 % of control

O=C(O)c1ccc2c(c1)C(=O)c1ccccc1S2(=O)=O
inactive: [1] 92 % of control | [2] 93 % of control

CC(CCOCC1CO1)OCC1CO1 (stereo not given)
inactive: dose: 100.0 mg/kg/injection, schedule: Q04DX003 (ip), vehicle: saline 100 % of control | dose: 200.0 mg/kg/injection, schedule: Q04DX003 (ip), vehicle: saline 108 % of control | dose: 400.0 mg/kg/injection, schedule: Q04DX003 (ip), vehicle: saline 110 % of control

O=[N+]([O-])O.[NH-]C1CCCCC1[NH-].[NH-]C1CCCCC1[NH-].[NH-]C1CCCCC1[NH-].[OH-].[OH-].[OH-].[Pt+4].[Pt+4].[Pt+4] (stereo not given)
inactive: dose: 0.25 mg/kg/injection, schedule: Q01DX009 (ip), vehicle: water 109 % of control and 119 % of control | dose: 0.5 mg/kg/injection, schedule: Q01DX009 (ip), vehicle: water 113 % of control and 123 % of control

C[Si](C)(C)Cc1ccccc1
inactive: [1] 114 % of control | [2] 109 % of control

COc1cc2c(c(OC)c1OC)-c1c(cc3c(c1OC)OCO3)CC(C)C(C)(O)C2OC(=O)c1ccccc1 (stereo not given)
inactive: dose: 11.25 mg/kg/injection, schedule: Q01DX009 (ip), vehicle: saline + Tween-80 + alcohol 106 % of control | dose: 22.5 mg/kg/injection, schedule: Q01DX009 (ip), vehicle: saline + Tween-80 + alcohol 97 % of control | dose: 45.0 mg/kg/injection, schedule: Q01DX009 (ip), vehicle: saline + Tween-80 + alcohol 97 % of control | dose: 90.0 mg/kg/injection, schedule: Q01DX009 (ip), vehicle: saline + Tween-80 + alcohol 91 % of control

NC(Cc1ccc(O)cc1)C(=O)O (stereo not given)
inactive: [8] 110 % of control | dose: 100.0 mg/kg/injection, schedule: Q04DX003 (ip), vehicle: saline with Tween-80 107 % of control | [11] 87 % of control | dose: 200.0 mg/kg/injection, schedule: Q04DX003 (ip), vehicle: saline with Tween-80 104 % of control | dose: 400.0 mg/kg/injection, schedule: Q01DX009 (ip), vehicle: saline with Tween-80 90 % of control | dose: 400.0 mg/kg/injection, schedule: Q04DX003 (ip), vehicle: saline with Tween-80 104 % of control

O=C1NC(c2ccccc2)(c2ccccc2)C(=O)N1CCN(CCCl)CCCl
inactive: dose: 1.3 mg/kg/injection, schedule: Q01DX009 (ip), vehicle: Klucel (hydroxypropylcellulose) (HPC) 93 % of control | dose: 2.0 mg/kg/injection, schedule: Q01DX009 (ip), vehicle: Klucel (hydroxypropylcellulose) (HPC) 105 % of control | [9] 103 % of control
active: dose: 3.12 mg/kg/injection, schedule: Q01DX009 (ip), vehicle: Klucel (hydroxypropylcellulose) (HPC) 160 % of control | dose: 6.25 mg/kg/injection, schedule: Q01DX009 (ip), vehicle: Klucel (hydroxypropylcellulose) (HPC) 161 % of control | [10] 153 % of control
